# US20240165123A1, “USE OF A COMPOUND CONTAINING A TRICYCLIC HETEROARYL GROUP” (CSPC Zhongqi Pharmaceutical Technology (Shijiazhuang) Co., …, priority 2021, published 2024)
# Experiments:
# [1] = tested on: OXA-induced Balb/c mouse atopic dermatitis model; assay: Pharmacodynamic test in the OXA-induced mouse atopic dermatitis model; type: in vivo, female Balb/c mice
# Source text: The purpose of this test was to evaluate the pharmacodynamics of Compound (I) in the OXA-induced Balb/c mouse atopic dermatitis model. Repeated OXA stimulation of the dorsal skin of mice could produce a long-term inflammatory reaction. This model was closer to the clinical skin inflammation and was a common model for screening and evaluating compounds with anti-inflammatory activity.
# Female Balb/c mice aged 8-9 weeks, number: 70
# According to the body weight of animals in each group before administration, they were randomly divided into 7 groups with 10 animals in each group.
# OXA induction was performed on the 7th day. The induction mode was to apply 5% OXA (dissolved in the acetone/olive oil (4/1) solvent) to the back of mice near the neck in an amount of 10 μL (1.5 cm×1.5 cm). Mice in the normal control group were applied with 10 μL of the acetone/olive oil (4/1) solvent in the same way. From the 1st da to 22nd day, the immunostimulation was performed, and 100 μL of 0.1% OXA (dissolved in the acetone/olive oil (4/1) solvent) was evenly applied on the back of mice near the neck. The application was performed every two days. Mice in the normal control group were applied with 100 μL of the acetone/olive oil (4/1) solvent in the same way. On the day of the immunostimulation, measuring the skin thickness, clinically scoring and photographing were required, and the OXA application was carried out after the above work was completed.
# Compound (I) was administered by gavage twice a day (PO, bid) from the 1st to 22nd day. The administration was performed in the morning and completed before measuring the skin thickness, clinically scoring, photographing, and the OXA immunostimulation. The interval between two administrations was 8 hours.
# Body weight data were recorded twice a week.
# Skin thickness (1.5 cm×1.5 cm, the modeling area) was measured with a Mitutoyo digital indicator (Mitutoyo digimatic indicator, Type ID-C, USA) from the 1st to 22nd day. The measurement was performed every two days. If the skin thickness measurement and the OXA immunostimulation were performed on the same day, the skin thickness measurement would be preferred.
# The skin in the modeling area was clinically scored according to the skin scoring criteria in Table 12 from the 1st to 22nd day and evaluated every two days. If the skin clinical scoring and the OXA immunostimulation were performed on the same day, the skin clinical scoring would be preferred.
# At the end of the study, the tissue in the modeling area was stained with hematoxylin eosin for the skin pathological scoring and the epidermal thickness measurement.
# After the mice were sacrificed, the dorsal skin was removed and fixed in 10% neutral formalin for 24 hours. It was dehydrated, then embedded in paraffin and made into 4-micron sections. The skin sections were stained with hematoxylin eosin, and the inflammatory cell infiltration and tissue changes in the stratum corneum, the epidermis layer and the dermis layer were observed under the microscope, and the pathological scores were made. The scoring criteria were: inflammatory cell aggregation and edema, which were divided into slight 1 point, moderate 2 points, and severe 3 points; telangiectasia, which was divided into slight 1 point, moderate 2 points, and severe 3 points.
# The specific scoring criteria of inflammatory cell aggregation were as follows: (1) slight-1 point: inflammatory cells occupied a small amount of <10% of the dermal area of the skin; (2) moderate-2 points: inflammatory cells occupied 10%-50% of the dermal area of the skin; (3) severe-3 points: the inflammatory cells occupied greater than 50% of the dermal area of the skin. […]
# [2] = tested on: IMQ-induced mouse psoriasis model; assay: Pharmacodynamic test in the IMQ-induced mouse psoriasis model; type: in vivo, female Balb/c mice; parameters: key to Skin PASI score Erythema / Skin PASI score Scaling / Skin PASI score Thickness: PASI component score, 0-4 points; key to Skin PASI Total Score: sum of erythema, scaling, thickness scores (each 0-4); key to Skin pathological score: sum of histopathology criterion points; details: Dex 3 mpk PO qd
# Source text: The purpose of this test was to evaluate the pharmacodynamics of Compound (I) in the IMQ (5% imiquimod cream cream)-induced mouse psoriasis model. One of the clinical adverse effects of imiquimod is to induce the onset of psoriasis.
# • Test medicament: Compound (I) • Positive control medicament: dexamethasone (Dex) • Vehicle: 0.4% Tween 80/0.5% methylcellulose.
# • female Balb/c mice aged 5-6 weeks, number: 70.
# The animals were randomly divided into seven groups according to the body weights on the day before the start of the experiment.
# The animals were shaved on their back one day before applying the medicament, forming a skin exposure area having a size of about 2 cm×3 cm. The mice were induced by IMQ, and applied with 62.5 mg of 5% imiquimod cream on the bare back and the right ear at regular intervals every day for 14 days. Mice in the normal control group were applied with vaseline on the bare back and the right ear at regular intervals every day.
# The skin thickness was measured daily from the first day of the test until the end of the test.
# The skin thickness measurement method was as follows: the back skin and the subcutaneous tissue of the mouse were pinched with the thumb and the index finger of the left hand in the same direction as the mouse body; the skinfold thickness was measured 1 cm away from the pinched part of the left hand (near the center of the molding part) with a digital thickness gauge (with millesimal reading) held in the right hand (model BK-3281, manufacturer: Shanghai Niuhui). The thickness was in mm, and the actual thickness was the half of the measured thickness (the skin thickness=the measured value/2).
# The ear thickness was measured daily (at the center of the auricle).
# Skin photographs were taken daily from the first day of the test until the end of the test.
# The clinical symptoms were evaluated with the PASI evaluation standard from three indicators of the erythema (Erythema), the scale (Scaling) and the skin thickness (Thickness), and scored with 0-4 points. The total score was obtained by summing the three scores. The PASI evaluation standard was as follows: 0, asymptomatic; 1, mild; 2, moderate; 3, severe; 4, extremely severe.
# Erythema: 0—no erythema visible; 1—light red; 2—red; 3—dark red; 4—extremely dark red.
# Scaling: 0—no visible scale on the skin surface; 1—part of the skin lesion surface covered with scales; 2—most of the skin lesion surface covered with scales; 3—almost all of the skin lesion region covered with scales; 4—all of the skin lesion region covered with scales.
# Dryness and pruritus are not included in the total score.
# On the 14th day of the test, the spleen weight was collected.
# After the test, all mice were euthanized by excessive inhalation of carbon dioxide. The skin was collected and divided into four parts, one of which was fixed in a tissue fixative solution for 24 hours for the pathological is detection. It was dehydrated, then embedded in paraffin and made into 4-micron sections. Skin sections were stained with hematoxylin eosin to observe the infiltration of the stratum corneum, the epidermal layer, the dermis layer and the inflammatory cell. When measuring the thickness of the epidermal layer, the stained skin sections were scanned with a Leca Aperio CS2 scanner at 200×magnification, and then the histopathological changes were observed and scored.
# The specific criteria of the pathological score were as follows: munro microabscess found in the epidermal layer 2.0 points; hyperkeratosis 0.5 points; parakeratosis 1.0 points; the thinning or disappearing of the granular layer 1.0 points; the thickening of acanthosis 1.0 points; the extension and fluctuation of cuticular process 0.5, 1.0 and 1.5 points respectively according to the mild, moderate and severe degrees. […]
# [3] = Dexamethasone 3 mpk PO qd, 1st Day
smiles,measurement,setting,value
"C[C@@H]1C[C@H]2[C@@H]3CCC4=CC(=O)C=C[C@]4(C)[C@@]3(F)[C@@H](O)C[C@]2(C)[C@@]1(O)C(=O)CO [Dexamethasone, reference compound]",Body weight,[1]; [3],18.08 ± 0.12 g
same,Skin clinical score,[1]; [3],0.4 ± 0.16
same,Skin thickness (modeling area),"[1]; Dexamethasone 3 mpk PO qd, 1st day",0.532 ± 0.012 mm
same,Body weight,"[1]; Dexamethasone 3 mpk PO qd, −7th Day",18.08 ± 0.12 g
same,Influence on the body weight of mice,"[1]; dexamethasone 3 mpk PO qd, end of the study",decreased significantly
same,Ear thickness Left,[2]; 1st Day,0.14 ± 0.00 mm
same,Ear thickness Right,[2]; 1st Day,0.14 ± 0.00 mm
same,Ear thickness Right-Left,[2]; 1st Day,0.00 ± 0.00 mm
same,Skin PASI Total Score,[2]; 1st Day,0.00 ± 0.00
same,Skin PASI score Erythema,[2]; 1st Day,0.00 ± 0.00
same,Skin PASI score Scaling,[2]; 1st Day,0.00 ± 0.00
same,Skin PASI score Thickness,[2]; 1st Day,0.00 ± 0.00
same,Skin thickness,[2]; 1st Day,0.32 ± 0.00 mm
same,Ear thickness Left,[2]; 14th Day,0.15 ± 0.00 mm
same,Ear thickness Right,[2]; 14th Day,0.33 ± 0.01 mm
same,Ear thickness Right-Left,[2]; 14th Day,0.18 ± 0.00 mm
same,Skin PASI Total Score,[2]; 14th Day,4.10 ± 0.18
same,Skin PASI score Erythema,[2]; 14th Day,2.10 ± 0.10
same,Skin PASI score Scaling,[2]; 14th Day,1.10 ± 0.10
same,Skin PASI score Thickness,[2]; 14th Day,0.90 ± 0.10
same,Skin thickness,[2]; 14th Day,0.32 ± 0.01 mm
same,Epidermal thickness,[2]; after 14 days of treatment,84.98 ± 7.40 μm
same,IL-6 content in skin (ELISA),[2]; after 14 days of treatment,607.20 ± 76.89 pg/g
same,Skin pathological score,[2]; after 14 days of treatment,3.95 ± 0.50
same,Spleen weight,[2]; after 14 days of treatment,93.79 ± 4.64 mg
same,Spleen weight/body weight (spleen index),[2]; after 14 days of treatment,6.17 ± 0.29 mg/g
same,TNF-alpha content in skin (ELISA),[2]; after 14 days of treatment,1172.53 ± 115.72 pg/g
